Experimental data as given in patent publication US10941143B2, “Imidazo [1,5-a]pyridine compounds and their use” (Alterity Therapeutics Limited, priority 2019, dated 2021).

Test system: human neuroblastoma line BE(2)-M17 (M17) cells
Assay: Measurement of Fe efflux from cells
Format: cell-based
Settings: M17 cells pre-loaded with 57Fe, compound 20 μM for 2 h, percentage increase of Fe in media relative to media without compound, read-out: % Fe Efflux Range
Procedure: Method I: Measurement of Fe Efflux from Cells
Compounds of the current invention were assessed for their ability to efflux iron (Fe) from a cell using the following protocol.
The human neuroblastoma line BE(2)-M17 (M17) cell cultures were acquired from Sigma Aldrich (Catalogue #: 95011816). M17 Cells were maintained in Opti-MEM reduced serum media supplemented with 10% fetal bovine serum (Bovogen, SFBSF) and passaged twice weekly. Cells were cultured at 37° C. in the presence of 5% CO2. Culture supplies were sourced from Thermo Fisher unless otherwise stated.
A solution of ^57Fe cold isotope was prepared by dissolving ^57Fe metal (>95% enrichment, Trace Sciences International) in concentrated HCl to give a final concentration of 573 mM. From this master solution, a 10 mM working solution was prepared in sterile water. The working solution was used within two months of preparation.
M17 cells were loaded with iron initially by seeding into 48-well plates at a density of 0.15×10^6 cells per well in 0.5 mL media. After 48 h, old media was discarded. Fresh media was supplemented with 20 μM ^57Fe isotope, from the 10 mM ^57Fe working solution. Cells received 0.2 mL of this ^57Fe enriched media and were returned to the incubator for 20 h. The ability of experimental compounds to efflux iron was determined by the dissolution of compounds in DMSO and diluted in Hanks' Balanced Salt Solution (HBSS) for treatment of M17 cells. After ^57Fe incubation, cells were rinsed twice with HBSS and treated with 0.15 mL trial compound for 2 h at a concentration of 20 μM. All assays included a relevant vehicle (0.4%-0.8% DMSO) as well as a positive control (20 μM). Following the treatment period, 0.1 mL of media was collected from cells and the extracellular ^57Fe content was analysed via inductively coupled mass spectrometry (ICP-MS, Agilent 7700x series instrument).
To perform this protocol the following supplies were purchased from Sigma Aldrich: anhydrous dimethyl sulfoxide (DMSO, Catalogue #: 276855), Hanks' Balanced Salt Solution supplemented with 20 mM HEPES and 4.2 mM Sodium Bicarbonate (HBSS, pH: 7.4, Catalogue #: H1387).
After 2 h the Fe levels in the media were measured and the increase determined as a percentage increase relative to the cell media in the absence of the compound.

| Compound | activation at 20 µM [%] |
| --- | --- |
| Oc1cccnc1-c1nc(-c2cccc(F)c2O)n2ncccc12 [Compound 121] | > 150 |
| Oc1cccnc1-c1nc(-c2cccc(Cl)c2O)n2ncccc12 [Compound 122] | > 150 |
| Cc1ccc(O)c(-c2nc(-c3ncccc3O)c3cccnn23)c1 [Compound 123] | > 150 |
| CN(C)Cc1cccc(-c2nc(-c3ccccc3O)c3ccccn23)c1O [Compound 124, 2-((Dimethylamino)methyl)-6-(1-(2-hydroxyphenyl)imidazo[1,5-a]pyridin-3-yl)phenol] | > 150 |
| COc1cnccc1-c1nc(-c2ccccc2O)c2ccccn12 [Compound 125] | < 30 |
| COC(=O)c1ccccc1-c1nc(-c2ncccc2O)c2ccccn12 [Compound 126] | < 30 |
| Oc1cccnc1-c1nc(-c2ccc(Cl)cc2)n2ccccc12 [Compound 127] | < 30 |
| Oc1cccnc1-c1nc(-c2ccccc2F)n2ccccc12 [Compound 130, 2-(3-(2-Fluorophenyl)imidazo[1,5-a]pyridin-1-yl)pyridin-3-ol] | < 30 |
| Oc1ccccc1-c1nc(-c2cccnc2O)c2ccccn12 [Compound 141, 3-(3-(2-Hydroxyphenyl)imidazo[1,5-a]pyridin-1-yl)pyridin-2-ol] | 100 to 150 |
| Cc1cccc(-c2nc(-c3cccnc3O)c3ccccn23)c1O [Compound 142] | 30 to 100 |
| Oc1cc(Cl)ccc1-c1nc(-c2cccnc2O)c2ccccn12 [Compound 143] | < 30 |
| Oc1ccc(F)cc1-c1nc(-c2cccnc2O)c2ccccn12 [Compound 144, 3-(3-(5-Fluoro-2-hydroxyphenyl)imidazo[1,5-a]pyridin-1-yl)pyridin-2-ol] | 100 to 150 |
| Oc1ncccc1-c1nc(-c2cc(F)cc(F)c2O)n2ccccc12 [Compound 145] | 100 to 150 |
| CCN(CC)c1ccc(-c2nc(-c3cccnc3O)c3ccccn23)c(O)c1 [Compound 146] | 30 to 100 |
| Cc1ccc(O)c(-c2nc(-c3cccnc3O)c3ccccn23)c1 [Compound 147, 3-(3-(2-Hydroxy-5-methylphenyl)imidazo[1,5-a]pyridin-1-yl)pyridin-2-ol] | 100 to 150 |
| Oc1ncccc1-c1nc(-c2cccc(F)c2O)n2ccccc12 [Compound 148] | 30 to 100 |
| Oc1ccc(Cl)cc1-c1nc(-c2cccnc2O)c2ccccn12 [Compound 149] | 30 to 100 |
| Oc1ncccc1-c1nc(-c2cccc(Cl)c2O)n2ccccc12 [Compound 150] | 30 to 100 |
| Oc1cccc(F)c1-c1nc(-c2cccnc2O)c2ccccn12 [Compound 152] | 30 to 100 |
| COc1ccncc1-c1nc(-c2ccccc2O)n2ccccc12 [Compound 153] | < 30 |
| COc1ccncc1-c1nc(-c2cc(F)ccc2O)n2ccccc12 [Compound 154] | < 30 |
| COc1ccncc1-c1nc(-c2cc(F)cc(F)c2O)n2ccccc12 [Compound 155] | < 30 |

| Compound | activation at 20 µM [%] |
| --- | --- |
| COc1ccncc1-c1nc(-c2c(O)cccc2F)n2ccccc12 [Compound 156] | < 30 |
| COc1ccncc1-c1nc(-c2cccc(F)c2O)n2ccccc12 [Compound 157] | < 30 |
| Oc1ccncc1-c1nc(-c2ccccc2O)n2ccccc12 [Compound 158] | 30 to 100 |
| Oc1ccncc1-c1nc(-c2cc(F)ccc2O)n2ccccc12 [Compound 159] | 30 to 100 |
| Oc1ccncc1-c1nc(-c2cc(F)cc(F)c2O)n2ccccc12 [Compound 160] | 30 to 100 |
| Oc1ccncc1-c1nc(-c2c(O)cccc2F)n2ccccc12 [Compound 161] | 30 to 100 |
| Oc1ccncc1-c1nc(-c2cccc(F)c2O)n2ccccc12 [Compound 162] | 30 to 100 |
| COc1ccncc1-c1nc(-c2cccc(C)c2O)n2ccccc12 [Compound 163] | < 30 |
| CN(C)Cc1cccc(-c2nc(-c3cccnc3O)c3ccccn23)c1O [Compound 168] | < 30 |
| Cc1ccc(O)c(-c2nc(-c3cnccc3O)c3ccccn23)c1 [Compound 169] | 30 to 100 |
| Oc1ccncc1-c1nc(-c2cccc(Cl)c2O)n2ccccc12 [Compound 171] | 30 to 100 |
| Oc1ccncc1-c1nc(-c2c(O)cccc2Cl)n2ccccc12 [Compound 172] | 30 to 100 |
| Oc1cnccc1-c1nc(-c2ccccc2O)n2ccncc12 [Compound 174] | > 150 |
| Oc1cnccc1-c1nc(-c2cccc(F)c2O)n2ccncc12 [Compound 175] | > 150 |
| Cc1cccc(-c2nc(-c3ccncc3O)c3cnccn23)c1O [Compound 177] | > 150 |
| Oc1cnccc1-c1nc(-c2cc(F)ccc2O)n2ccncc12 [Compound 178] | > 150 |
| Oc1cnccc1-c1nc(-c2cc(Cl)ccc2O)n2ccncc12 [Compound 179] | > 150 |
| Cc1ccc(O)c(-c2nc(-c3ccncc3O)c3cnccn23)c1 [Compound 180] | > 150 |
| Oc1cnccc1-c1nc(-c2ccccc2O)n2ncccc12 [Compound 181] | 100 to 150 |
| Cc1ccc(O)c(-c2nc(-c3ccncc3O)c3cccnn23)c1 [Compound 182] | 30 to 100 |
| Oc1cnccc1-c1nc(-c2ccccc2O)n2cccnc12 [Compound 185] | 100 to 150 |
| Cc1ccc(O)c(-c2nc(-c3ccncc3O)c3ncccn23)c1 [Compound 186] | 30 to 100 |
